In paper PMC8307317, “Point-Substitution of Phenylalanine Residues of 26RFa Neuropeptide: A Structure-Activity Relationship Study” (Molecules, 2021):
Where two headings read alike, the source gives them in different places. Non-standard residues stand in square brackets, D forms with d. Residues, ends and D or L forms follow the SMILES beside them. No end group written: not given here. *: point of attachment. Phe(4-tBu) = CC(C)(C)c1ccc(C[C@H](N)C(=O)O)cc1; X4 = COc1ccc(C(C(=O)*)N2CCNCC2)cc1OC; X5 = COc1ccc(C(C(=O)*)N2CCNCC2)cc1; X1 = O=C(C(c1cccnc1)N1CCNCC1)*

Experiments:
human QRFPR (hQRFPR) [1] = target: T1, human QRFPR (hQRFPR) (Homo sapiens, UniProt Q96P65); assay: Calcium mobilization assay, antagonist mode (26RFa-evoked [Ca2+]i increase in Gα16-hQRFPR-transfected CHO cells); type: cell-based; details: for inhibition at 10 µM: CHO, read-out: Imax (inhibition of 26RFa-evoked response); for inhibition at 10 µM / Imax (inhibition of 26RFa-evoked response): Inhibition at a maximal concentration of 10^−5 M, 10^−7 M 26RFa
T1 construct: expressed in transfected cells; host or cells: CHO cells, stably transfected with hQRFPR (G418 selection) and Gα16 (hygromycin B selection)
T1 sequence (Q96P65 1-431): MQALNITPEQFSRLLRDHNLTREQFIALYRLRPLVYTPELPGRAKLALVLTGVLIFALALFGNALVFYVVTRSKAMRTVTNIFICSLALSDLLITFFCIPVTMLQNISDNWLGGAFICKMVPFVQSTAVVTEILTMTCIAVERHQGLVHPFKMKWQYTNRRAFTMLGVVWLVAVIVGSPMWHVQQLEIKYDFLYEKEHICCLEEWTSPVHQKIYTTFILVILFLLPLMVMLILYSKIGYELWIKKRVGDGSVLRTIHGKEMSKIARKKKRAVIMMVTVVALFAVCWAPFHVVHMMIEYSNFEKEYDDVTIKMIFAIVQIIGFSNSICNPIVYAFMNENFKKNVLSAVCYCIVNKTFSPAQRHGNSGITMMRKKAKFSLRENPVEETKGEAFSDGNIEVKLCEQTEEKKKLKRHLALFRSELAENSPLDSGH
Procedure: (§1) Stably transfected hQRFPR CHO cells were obtained as previously described. The cells were maintained in F-12 nutrient mixture (Ham-F12) medium supplemented with 10% fetal bovine serum, 2 mM glutamine, and penicillin-streptomycin. Expression of Gα16 cells was maintained using selection antibiotic hygromycin B (200 µg/mL) and that of hQRFPR using geneticin G418 (500 µg/mL) (Life Technologies, Villebon-Sur-Yvette, France) in a humidified 5% CO2 atmosphere at 37 °C.
(§2) Changes in intracellular Ca^2+ concentrations induced by 26RFa(20–26) analogs in CHO-Gα16-hQRFPR-transfected cells were measured on a benchtop scanning fluorometer Flexstation III (Molecular Devices, Sunnyvale, CA, USA) as previously described. Briefly, 96-well assay black plates with clear bottoms (Corning international, Avon, France) were seeded at a density of 40,000 cells/well 24 h prior to assay. For profiling agonistic experiments, cells were loaded with 2 µM Fluo-4 acetoxymethyl ester (AM) (Invitrogen) for 1 h in the presence of 0.01% pluronic acid, washed thrice, and incubated for 30 min with standard HBSS containing 2.5 mM probenecid and 5 mM HEPES. Compounds to be tested were added at final concentrations ranging from 10^−11 to 10^−5 M in HBSS, and the fluorescence intensity was measured during 3 min. To evaluate the antagonistic potency of the test compounds, cells were incubated with each compound over 15 min after Fluo-4 AM loading. Then, during fluorescence recording, a pulse of 26RFa was administered at a final concentration of 10^−7 M. After subtraction of the mean fluorescence background, the baseline was normalized to 100%. Fluorescence peak values were determined for each concentration of compound.
(§3) Calcium experiments were performed in triplicate, and data, expressed as mean ± SEM of at least three distinct experiments, were analyzed with the Prism 8.0 software (Graphpad Software, San Diego, CA, USA). EC50 and the IC50 values were determined from concentration–response curves using a sigmoidal dose–response fit with variable slope from at least three independent determinations. Differences between 26RFa(20–26) and analog activities were analyzed by the Mann–Whitney test. p values < 0.05 were considered significant.

human QRFPR (hQRFPR) [2] = target: T1, human QRFPR (hQRFPR); assay: Calcium mobilization assay, agonist mode ([Ca2+]i in Gα16-hQRFPR-transfected CHO cells); type: cell-based
Procedure: as §1, §2, §3

human QRFPR (hQRFPR) [3] = target: T1, human QRFPR (hQRFPR); design: method as in PMID 22800498; details: cited from earlier work
[4] = single prototype curve, triplicate, 10^−7 M 26RFa-evoked response, read-out: IC50 calculated from representative dose–inhibition curves (Figure 4)
[5] = [Ca2+]i mobilization in Gα16-hQRFPR-transfected CHO cells, mean of at least three independent experiments performed in triplicate, read-out: EC50

Row | Compound | EC50 (human QRFPR (hQRFPR) [2]; [5]) [µM] | other results
1 | CC(C)(C)c1ccc(C[C@H](NC(=O)CNC(=O)CN)C(=O)N[C@@H](CO)C(=O)N[C@@H](Cc2ccccc2)C(=O)N[C@@H](CCCNC(=N)N)C(=O)N[C@@H](Cc2ccccc2)C(N)=O)cc1 [Compound 11, [ptBuPhe^22]26RFa(20–26)] (H-GG[Phe(4-tBu)]SFRF-NH2) | > 10 | inhibition at 10 µM (human QRFPR (hQRFPR) [1]): 45 to 46%; Imax (inhibition of 26RFa-evoked response) (human QRFPR (hQRFPR) [1]): 45%; IC50 (human QRFPR (hQRFPR) [1]; inhibition of 10^−7 M 26RFa-evoked [Ca2+]i response, compounds inactive as agonists, ND = not detectable, read-out: IC50): 6.22 µM; IC50 (human QRFPR (hQRFPR) [1]; [4]): 4.49 µM
2 | N=C(N)NCCC[C@H](NC(=O)[C@H](Cc1ccccc1)NC(=O)[C@H](CO)NC(=O)[C@H](Cc1ccccc1)NC(=O)CNC(=O)CN)C(=O)N[C@H](Cc1c[nH]c2ccccc12)C(N)=O [Compound 39, [DTrp^26]26RFa(20–26)] (H-GGFSFR[dW]-NH2) | – | inhibition at 10 µM (human QRFPR (hQRFPR) [1]): 45 to 46%; Imax (inhibition of 26RFa-evoked response) (human QRFPR (hQRFPR) [1]): 46%; IC50 (human QRFPR (hQRFPR) [1]; [4]): 5.84 µM
3 | COc1ccc(C(C(=O)N[C@@H](CO)C(=O)N[C@@H](Cc2ccccc2)C(=O)N[C@@H](CCCNC(=N)N)C(=O)N[C@@H](Cc2ccccc2)C(N)=O)N2CCNCC2)cc1 (stereo partly shown) [Compound 59, [Cmpi(4-MeOPhg)^22]26RFa(22–26)] (X5-SFRF-NH2) | > 10 | –
4 | COc1ccc(C(C(=O)N[C@@H](CO)C(=O)N[C@@H](Cc2ccccc2)C(=O)N[C@@H](CCCNC(=N)N)C(=O)N[C@@H](Cc2ccccc2)C(N)=O)N2CCNCC2)cc1 (stereo partly shown) [Compound 60, [Cmpi(4-MeOPhg)^22]26RFa(22–26)] (X5-SFRF-NH2) | > 10 | –
5 | COc1ccc(C(C(=O)N[C@@H](CO)C(=O)N[C@@H](Cc2ccccc2)C(=O)N[C@@H](CCCNC(=N)N)C(=O)N[C@@H](Cc2ccccc2)C(N)=O)N2CCNCC2)cc1OC (stereo partly shown) [Compound 61, [Cmpi(3,4-diMeOPhg)^22]26RFa(22–26)] (X4-SFRF-NH2) | > 10 | –
6 | COc1ccc(C(C(=O)N[C@@H](CO)C(=O)N[C@@H](Cc2ccccc2)C(=O)N[C@@H](CCCNC(=N)N)C(=O)N[C@@H](Cc2ccccc2)C(N)=O)N2CCNCC2)cc1OC (stereo partly shown) [Compound 62, [Cmpi(3,4-diMeOPhg)^22]26RFa(22–26)] (X4-SFRF-NH2) | > 10 | –
7 | N=C(N)NCCC[C@H](NC(=O)[C@H](Cc1ccccc1)NC(=O)[C@H](CO)NC(=O)C(c1cccnc1)N1CCNCC1)C(=O)N[C@@H](Cc1ccccc1)C(N)=O (stereo partly shown) [Compound 63, [Cmpi(3-Pyg)^22]26RFa(22–26)] (X1-SFRF-NH2) | 4.99 | –
8 | N=C(N)NCCC[C@H](NC(=O)[C@H](Cc1ccccc1)NC(=O)[C@H](CO)NC(=O)C(c1cccnc1)N1CCNCC1)C(=O)N[C@@H](Cc1ccccc1)C(N)=O (stereo partly shown) [Compound 64, [Cmpi(3-Pyg)^22]26RFa(22–26)] (X1-SFRF-NH2) | > 10 | –
9 | GGFSFRF-NH2 [Compound 1, 26RFa(20–26)] | – | EC50 (human QRFPR (hQRFPR) [2]; single prototype curve, triplicate, basal [Ca2+]i mobilization, read-out: EC50 calculated from representative dose–response curves (Figure 3)): 1.07 µM
10 | GGFSFRW-NH2 [Compound 10, [Trp^26]26RFa(20–26)] | 5.06 | –
11 | GGFSWRF-NH2 [Compound 9, [Trp^24]26RFa(20–26)] | 2.04 | –
12 | GGWSFRF-NH2 [Compound 8, [Trp^22]26RFa(20–26)] | 1.98 | –
13 | [Cmpi^21]26RFa(21–26) [LV-2043] | – | fold more potent than the reference heptapeptide 26RFa(20–26) (human QRFPR (hQRFPR) [3]): 5 fold
